Biological target: T1, human TLR7 (Homo sapiens, UniProt Q9NYK1)
T1 construct: host or cells: HEK-Blue TLR7 cells (engineered human embryonic kidney cells)
T1 sequence (Q9NYK1 27-1049): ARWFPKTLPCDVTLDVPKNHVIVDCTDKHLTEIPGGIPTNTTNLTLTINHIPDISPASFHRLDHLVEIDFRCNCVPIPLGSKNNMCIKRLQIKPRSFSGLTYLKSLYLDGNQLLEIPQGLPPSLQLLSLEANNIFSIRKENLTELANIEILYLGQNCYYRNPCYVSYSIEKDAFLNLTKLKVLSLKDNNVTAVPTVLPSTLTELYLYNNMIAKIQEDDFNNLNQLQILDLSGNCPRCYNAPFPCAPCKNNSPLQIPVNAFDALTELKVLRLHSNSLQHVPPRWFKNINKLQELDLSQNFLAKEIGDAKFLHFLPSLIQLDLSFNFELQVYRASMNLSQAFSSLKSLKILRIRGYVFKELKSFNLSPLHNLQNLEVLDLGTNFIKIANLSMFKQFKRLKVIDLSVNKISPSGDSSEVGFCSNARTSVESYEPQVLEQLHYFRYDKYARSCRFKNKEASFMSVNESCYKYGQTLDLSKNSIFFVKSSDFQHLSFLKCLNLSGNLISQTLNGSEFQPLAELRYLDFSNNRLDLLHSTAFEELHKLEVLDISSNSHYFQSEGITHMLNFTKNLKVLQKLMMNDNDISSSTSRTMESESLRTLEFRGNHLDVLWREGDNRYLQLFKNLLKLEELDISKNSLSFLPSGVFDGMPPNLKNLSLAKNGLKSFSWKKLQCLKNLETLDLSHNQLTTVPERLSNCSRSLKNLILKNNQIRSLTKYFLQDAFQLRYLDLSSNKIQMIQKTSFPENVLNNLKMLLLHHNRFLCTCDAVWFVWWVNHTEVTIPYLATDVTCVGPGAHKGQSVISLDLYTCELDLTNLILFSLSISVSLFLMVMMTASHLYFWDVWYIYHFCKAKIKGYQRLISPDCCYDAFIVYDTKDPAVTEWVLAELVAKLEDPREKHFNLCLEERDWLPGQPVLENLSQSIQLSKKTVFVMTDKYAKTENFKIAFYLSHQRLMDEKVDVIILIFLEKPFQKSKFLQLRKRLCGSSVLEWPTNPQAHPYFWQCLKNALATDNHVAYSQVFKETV
Assay: Human TLR7 agonist activity assay (HEK-Blue TLR7 SEAP reporter)
Assay type: cell-based
Details: HEK-Blue TLR7 cells, 18 h treatment, average where assay performed multiple times, read-out: hTLR7 Agonism EC50
Description: This procedure describes a method for assaying human TLR7 (hTLR7) agonist activity of the compounds disclosed in this specification.
HEK-Blue™ TLR7 cells were added to each well of a 384-well tissue-culture plate (15,000 cells per well) and incubated 16-18 h at 37° C., 5% CO2. Compounds (100 nl) were dispensed into wells containing the HEK-Blue™ TLR cells and the treated cells were incubated at 37° C., 5% CO2. After 18 h treatment ten microliters of freshly-prepared Quanti-Blue™ reagent (Invivogen) was added to each well, incubated for 30 min (37° C., 5% CO2) and SEAP levels measured using an Envision plate reader (OD=620 nm). The half maximal effective concentration values (EC50; compound concentration which induced a response halfway between the assay baseline and maximum) were calculated.

EC50 [nM] | Compound
256 | CCC[C@@H](CCO)Nc1nc(N)nc2cnn(Cc3ncc(C4CCCNC4)cc3OC)c12 (single isomer, unassigned) [Compound 201]
123 | CCC[C@@H](CCO)Nc1nc(N)nc2cnn(Cc3ncc(C4CCN(C5CCOC5)CC4)cc3OC)c12 (single isomer, unassigned) [Compound 211]
6.5 | CCC[C@@H](CCO)Nc1nc(N)nc2cnn(Cc3ncc(C4CCN(C5CCOC5)CC4)cc3OC)c12 (single isomer, unassigned) [Compound 212]
119 | CCCCNc1nc(N)nc2cnn(Cc3ncc(C4CCN(C(CC)CC)CC4)cc3OC)c12 [Compound 130, N7-butyl-1-({3-methoxy-5-[1-(pentan-3-yl)piperidin-4-yl]pyridin-2-yl}methyl)-1H-pyrazolo[4,3-d]pyrimidine-5,7-diamine]
101 | COc1cc(C2CCN(CCN(C)C)CC2)cnc1Cn1ncc2nc(N)nc(NCc3cc(C)on3)c21 [Compound 145, 1-[(5-{1-[2-(dimethylamino)ethyl]piperidin-4-yl}-3-methoxypyridin-2-yl)methyl]-N7-[(5-methyl-1,2-oxazol-3-yl)methyl]-1H-pyrazolo[4,3-d]pyrimidine-5,7-diamine]
111 | COc1cc(C2CCNCC2)cnc1Cn1ncc2nc(N)nc(NCC3CC4(CC4)C3)c21 [Compound 152, 1-{[3-methoxy-5-(piperidin-4-yl)pyridin-2-yl]methyl}-N7-({spiro[2.3]hexan-5-yl}methyl)-1H-pyrazolo[4,3-d]pyrimidine-5,7-diamine]
86.8 | COc1cc(C2CCN(CCO)CC2)cnc1Cn1ncc2nc(N)nc(NCC3CC4(CC4)C3)c21 [Compound 153, 2-{4-[6-({5-amino-7-[({spiro[2.3]hexan-5-yl}methyl)amino]-1H-pyrazolo[4,3-d]pyrimidin-1-yl}methyl)-5-methoxypyridin-3-yl]piperidin-1-yl}ethan-1-ol]
199 | COc1cc(C2CCN(C(=O)CCN(C)C)CC2)cnc1Cn1ncc2nc(N)nc(NCC3CC4(CC4)C3)c21 [Compound 155, 1-{4-[6-({5-amino-7-[({spiro[2.3]hexan-5-yl}methyl)amino]-1H-pyrazolo[4,3-d]pyrimidin-1-yl}methyl)-5-methoxypyridin-3-yl]piperidin-1-yl}-3-(dimethylamino)propan-1-one]
40.9 | COc1cc(C2CCN(C(C)C)CC2)cnc1Cn1ncc2nc(N)nc(NCC3CC4(CC4)C3)c21 [Compound 156, 1-({3-methoxy-5-[1-(propan-2-yl)piperidin-4-yl]pyridin-2-yl}methyl)-N7-({spiro[2.3]hexan-5-yl}methyl)-1H-pyrazolo[4,3-d]pyrimidine-5,7-diamine]
13 | CCCCNc1nc(N)nc2cnn(Cc3ccc(C4CCNCC4)cc3OC)c12 [Compound 160, N7-butyl-1-{[2-methoxy-4-(piperidin-4-yl)phenyl]methyl}-1H-pyrazolo[4,3-d]pyrimidine-5,7-diamine]
12.2 | CCCCNc1nc(N)nc2cnn(Cc3ccc(C4CCN(C(=O)CC(C)(C)O)CC4)cc3OC)c12 [Compound 162, 1-[4-(4-{[5-amino-7-(butylamino)-1H-pyrazolo[4,3-d]pyrimidin-1-yl]methyl}-3-methoxyphenyl)piperidin-1-yl]-3-hydroxy-3-methylbutan-1-one]
117 | COc1cc(C2CCN(C3CCOCC3)CC2)cnc1Cn1ncc2nc(N)nc(NCc3noc(C)n3)c21 [Compound 200, 1-({3-methoxy-5-[1-(oxan-4-yl)piperidin-4-yl]pyridin-2-yl}methyl)-N7-[(5-methyl-1,2,4-oxadiazol-3-yl)methyl]-1H-pyrazolo[4,3-d]pyrimidine-5,7-diamine]
496 | CCC[C@@H](CCO)Nc1nc(N)nc2cnn(Cc3ccc(C4CN(C(=O)CCN(C)C)CCN4)cc3OC)c12 (stereo partly drawn) [Compound 202, 1-(3-{4-[(5-amino-7-{[(3S)-1-hydroxyhexan-3-yl]amino}-1H-pyrazolo[4,3-d]pyrimidin-1-yl)methyl]-3-methoxyphenyl}piperazin-1-yl)-3-(dimethylamino)propan-1-one]
35 | CCC[C@@H](CCO)Nc1nc(N)nc2cnn(Cc3ccc(C4CN(C5CCOCC5)CCN4)cc3OC)c12 (stereo partly drawn) [Compound 203, (3S)-3-{[5-amino-1-({2-methoxy-4-[4-(oxan-4-yl)piperazin-2-yl]phenyl}methyl)-1H-pyrazolo[4,3-d]pyrimidin-7-yl]amino}hexan-1-ol]
91.1 | CCC[C@@H](CCO)Nc1nc(N)nc2cnn(Cc3ncc(C4CCN(Cc5ncn(C)n5)CC4)cc3OC)c12 [Compound 204, (3S)-3-({5-amino-1-[(3-methoxy-5-{1-[(1-methyl-1H-1,2,4-triazol-3-yl)methyl]piperidin-4-yl}pyridin-2-yl)methyl]-1H-pyrazolo[4,3-d]pyrimidin-7-yl}amino)hexan-1-ol]
74.9 | CCC[C@@H](CCO)Nc1nc(N)nc2cnn(Cc3ncc(C4CCN(CCS(C)(=O)=O)CC4)cc3OC)c12 [Compound 206, (3S)-3-{[5-amino-1-({5-[1-(2-methanesulfonylethyl)piperidin-4-yl]-3-methoxypyridin-2-yl}methyl)-1H-pyrazolo[4,3-d]pyrimidin-7-yl]amino}hexan-1-ol]
25.1 | CCC[C@@H](CCO)Nc1nc(N)nc2cnn(Cc3ncc(C4CCN(Cc5ncco5)CC4)cc3OC)c12 [Compound 207, (3S)-3-({5-amino-1-[(3-methoxy-5-{1-[(1,3-oxazol-2-yl)methyl]piperidin-4-yl}pyridin-2-yl)methyl]-1H-pyrazolo[4,3-d]pyrimidin-7-yl}amino)hexan-1-ol]
168 | CCC[C@@H](CCO)Nc1nc(N)nc2cnn(Cc3ncc(C4CCN(C(=O)CN5CCOCC5)CC4)cc3OC)c12 [Compound 208, 1-(4-{6-[(5-amino-7-{[(3S)-1-hydroxyhexan-3-yl]amino}-1H-pyrazolo[4,3-d]pyrimidin-1-yl)methyl]-5-methoxypyridin-3-yl}piperidin-1-yl)-2-(morpholin-4-yl)ethan-1-one]
12.3 | CCC[C@@H](CCO)Nc1nc(N)nc2cnn(Cc3ccc(C4CN(CC(C)(C)O)CCN4)cc3OC)c12 (stereo partly drawn) [Compound 209, (3S)-3-{[5-amino-1-({4-[4-(2-hydroxy-2-methylpropyl)piperazin-2-yl]-2-methoxyphenyl}methyl)-1H-pyrazolo[4,3-d]pyrimidin-7-yl]amino}hexan-1-ol]
9.05 | CCC[C@@H](CCO)Nc1nc(N)nc2cnn(Cc3ncc(C4CCN(C5CCOC5)CC4)cc3OC)c12 (stereo partly drawn) [Compound 210, (3S)-3-{[5-amino-1-({3-methoxy-5-[1-(oxolan-3-yl)piperidin-4-yl]pyridin-2-yl}methyl)-1H-pyrazolo[4,3-d]pyrimidin-7-yl]amino}hexan-1-ol]
56.6 | CCC[C@@H](CCO)Nc1nc(N)nc2cnn(Cc3ncc(C4CCN(C5CCN(C)CC5)CC4)cc3OC)c12 [Compound 213, (3S)-3-({5-amino-1-[(3-methoxy-5-{1′-methyl-[1,4′-bipiperidine]-4-yl}pyridin-2-yl)methyl]-1H-pyrazolo[4,3-d]pyrimidin-7-yl}amino)hexan-1-ol]
315 | CCC[C@@H](CCO)Nc1nc(N)nc2cnn(Cc3ncc(C4CCN(C5CCNCC5)CC4)cc3OC)c12 [Compound 214, (3S)-3-([5-amino-1-[(5-{[1,4′-bipiperidine]-4-yl}-3-methoxypyridin-2-yl)methyl]-1H-pyrazolo[4,3-d]pyrimidin-7-yl}amino)hexan-1-ol]

Source: patent US20230144824A1, “1H-PYRAZOLO[4,3-d]PYRIMIDINE COMPOUNDS AS TOLL-LIKE RECEPTOR 7 (TLR7) AGONISTS” (BRISTOL-MYERS SQUIBB COMPANY, priority 2020, published 2023)
